Data published in patent US20240374739A1, “BILE ACID CONJUGATE” (Curtin University, priority 2021, published 2024).

Key:
[1] = tested on: Neurodegenerated cells (perinatal tissue derived human stem cell model for Alzheimer's disease); test: Lactate dehydrogenase (LDH) assay, in vitro model of Alzheimer's disease; assay type: cell-based; settings: probucol 20 μM, SPQ 10 μM, HA-1 10 μM, rivastigmine 2 μM, 24 hours; compared to ND cells
Method: (§1) Perinatal tissue derived human stem cell model for Alzheimer's disease (AD) was prepared using proprietary protocols to test the effect of new drug entities. Drug treatment was for 24 h in all the assays.
LDH leakage is a well characterised marker of cellular membrane damage and increase in indicative of lactate deficit, is a hallmark of AD.

[2] = biological target: T1, Acetylcholinesterase (AChE) (Homo sapiens, UniProt P22303); test: Acetylcholinesterase (AChE) activity, Amplex Red reagent-based assay, Alzheimer's disease model; assay type: cell-based; settings: probucol 20 μM, SPQ 10 μM, HA-1 10 μM, rivastigmine 2 μM, 24 hours
T1 construct: We assayed for AChE activity and ACh release in control, neurodegenerated AD and drug treated AD cells; endogenous in cells; host or cells: neurodegenerated cells of a human stem cell AD model derived from perinatal tissue (amniotic membrane mesenchymal stem cells are named for the MTT assay)
Method: as §1
(§2) Acetylcholinesterase (AChE) that regulates hydrolysis of acetylcholine (ACh) in the brain, is an important target for treatment of Alzheimer's disease (AD), a feature of which is ACh deficiency. We assayed for AChE activity and ACh release in control, neurodegenerated AD and drug treated AD cells.

[3] = tested on: Neurodegenerated cells (Alzheimer's disease model); test: Acetylcholine (ACh) release, Amplex Red reagent-based assay, Alzheimer's disease model; assay type: cell-based, human; settings: probucol 20 μM, SPQ 10 μM, HA-1 10 μM, rivastigmine 2 μM, 24 hours
Method: as §1, §2

[4] = tested on: Neurodegenerated cells (Alzheimer's disease model); test: Gene expression analysis by qRT-PCR for neuronal, cholinergic and AD associated markers; assay type: cell-based, human; settings: 24 h drug treatment
Method: as §1
For determining the expression of genes involved in AD specific neurodegeneration and neuronal markers, we analysed BACE and chAT (AD and cholinergic markers) and synapsin 1 and neuropilin (neuronal markers).

[5] = tested on: Neurodegenerated cells (Alzheimer's disease model); test: Immunocytochemical localization of AD specific and neuronal markers; assay type: cell-based, human; settings: fluorescence micrographs
Method: as §1
For further confirmation and protein localization of the AD specific neurodegenerative markers and neuronal markers, we performed immunolocalization for BACE1 and synapsin respectively.
Fluorescence micrographs of BACE1 positive neuronal cells were obtained and the effects of probucol, SPQ and HA-1 on neurodegeneration model were compared. […] In the AD model, as expected BACE1 accumulation is clearly pronounced.
In the case of synapsin 1, a disruption in expression of synapsin protein in ND cells was observed.

[6] = tested on: Neurodegenerated cells (Alzheimer's disease model); test: ROS (reactive oxygen species) assay, Alzheimer's disease model; assay type: cell-based, human; settings: AD model
Method: as §1
(§3) Increase in oxidative stress is associated with accumulation of amyloid beta seen in the AD model. Increased oxidative stress and nitric oxide levels lead to apoptosis and evoke cytotoxic effects on neurons.

[7] = tested on: Neurodegenerated cells (Alzheimer's disease model); test: Greiss (nitric oxide) assay, Alzheimer's disease model; assay type: cell-based, human; settings: AD model
Method: as §1, §3

[8] = tested on: Neurodegenerated cells (perinatal tissue derived human stem cell model for Parkinson's disease); test: Mitochondrial membrane potential by TMRE assay, Parkinson's disease model; assay type: cell-based; settings: PD model; probucol 20 μM, SPQ 10 μM, HA-1 10 μM, L-Dopa 50 μM, 24 hours
Method: (§4) Perinatal tissue derived human stem cell model for Parkinson's disease (PD) was prepared using proprietary protocols to test the effect of new drug entities. Drug treatment was for 24 hours in all the assays.
Dysfunctional mitochondria and alterations in the mitochondrial membrane potential promote neurodegeneration seen in Parkinson's disease. For assessing the changes in mitochondrial membrane potential, we used TMRE (tetramethylrhodamine ethyl ester) to quantify the changes in live cells by fluorimetry.
Neurodegenerated cells were incubated with probucol (20 μM), SPQ (10 μM), HA-1 (10 μM) and L-Dopa (50 μM) for 24 hours (p<0.05; *p<0.05, **p<0.001, ***p<0.0001, ns=non-significant, n=3).

[9] = tested on: Neurodegenerated cells (Parkinson's disease model); test: Gene expression analysis by qRT-PCR for neuronal, dopaminergic and PD associated markers; assay type: cell-based, human; settings: 24 hours drug treatment
Method: as §4
Gene expression levels of mature neuronal marker (Synapsin I), dopaminergic markers (Nuclear receptor related 1 (Nurr1), Dopamine transporter (DAT) and Tyrosine hydroxylase (TH)), and PD associated marker (α-synuclein) were analysed to determine the effect of probucol, SPQ, HA-1 and L-Dopa.
(A) Synapsin I, (B) Nurr1, (C) DAT, (D) TH and (E) α-synuclein. (p<0.05; *p<0.05, **p<0.001, ***p<0.0001, n=3).

[10] = tested on: Neurodegenerated cells (Parkinson's disease model); test: Immunocytochemical localization of PD specific and neuronal markers; assay type: cell-based, human; settings: fluorescence micrographs
Method: as §4
For further confirmation and protein localization of neuronal, dopaminergic and PD specific neurodegenerative markers, we performed immunolocalization for synapsin I, Nurr1, TH and α-synuclein respectively.
Fluorescence micrographs of synapsin 1 positive neuronal cells were obtained and the effects of probucol, SPQ and HA-1 on neurodegeneration model with L-Dopa as positive control were compared.
Fluorescence micrographs of Nurr1 positive dopaminergic neuronal cells were obtained and the effects of probucol, SPQ and HA-1 on neurodegeneration model with L-Dopa as positive control were compared.
Fluorescence micrographs of TH positive dopaminergic neuronal cells were obtained and the effects of probucol, SPQ and HA-1 on neurodegeneration model with L-Dopa as positive control were compared.
Fluorescence micrographs of α-synuclein immunolocalization were obtained and the effects of probucol, SPQ and HA-1 on neurodegeneration model with L-Dopa as positive control were compared.

[11] = tested on: Neurodegenerated cells (Parkinson's disease model); test: ROS assay, Parkinson's disease model; assay type: cell-based, human; settings: PD model
Method: as §4
(§5) Increase in oxidative stress associated with accumulation of α-synuclein plays a central role in disease progression. Nitric oxide enhances the aggregation of α-synuclein and accelerates disease progression. Increased oxidative stress and nitric oxide levels lead to apoptosis and evoke cytotoxic effects on neurons.

[12] = tested on: Neurodegenerated cells (Parkinson's disease model); test: Greiss (nitric oxide) assay, Parkinson's disease model; assay type: cell-based, human; settings: PD model
Method: as §4, §5

[13] = tested on: Neurodegenerated cells (Parkinson's disease model); test: Glutathione peroxidase / GSH activity, Parkinson's disease model; assay type: cell-based, human; settings: PD model; vs neurodegeneration
Method: as §4
Parkinson's disease-related increase in oxidative stress is associated with mitochondrial dysfunction and subsequent decrease in the levels of brain antioxidant glutathione (GSH).
(Statistical analysis: Results are expressed in mean±SD. One-way ANOVA followed by Dunnett's post hoc test was performed to compare all columns vs neurodegeneration (p<0.05; *p<0.05, **p<0.001, ***p<0.0001, ns=non-significant, n=3).)

T1 sequence (P22303 32-614): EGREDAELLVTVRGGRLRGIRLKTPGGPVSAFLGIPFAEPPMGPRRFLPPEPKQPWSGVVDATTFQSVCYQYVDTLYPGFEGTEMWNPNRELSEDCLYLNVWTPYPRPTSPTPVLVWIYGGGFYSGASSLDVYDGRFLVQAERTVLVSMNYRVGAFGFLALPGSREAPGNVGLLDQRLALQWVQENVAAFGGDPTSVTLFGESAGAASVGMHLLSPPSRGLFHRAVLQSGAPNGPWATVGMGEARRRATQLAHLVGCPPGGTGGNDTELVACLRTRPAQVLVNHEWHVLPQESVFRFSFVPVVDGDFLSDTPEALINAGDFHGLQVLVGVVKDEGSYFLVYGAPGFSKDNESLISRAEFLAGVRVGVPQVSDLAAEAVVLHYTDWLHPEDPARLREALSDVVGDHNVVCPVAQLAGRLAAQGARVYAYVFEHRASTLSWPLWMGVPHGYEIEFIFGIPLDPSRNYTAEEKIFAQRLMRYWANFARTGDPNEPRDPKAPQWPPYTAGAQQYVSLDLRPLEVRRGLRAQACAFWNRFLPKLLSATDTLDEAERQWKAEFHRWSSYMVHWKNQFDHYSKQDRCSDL

Row | SMILES | LDH activity / LDH release [1] | Acetylcholinesterase (AChE) activity [2] | Acetylcholine (ACh) release / level [3] | BACE1 gene expression (qRT-PCR) [4] | ChAT gene expression (qRT-PCR) [4] | neuropilin gene expression (qRT-PCR) [4] | synapsin 1 (Syn) gene expression (qRT-PCR) [4] | synapsin 1 protein expression (immunolocalization) [5] | intracellular reactive oxidative stress (ROS) [6] | nitric oxide level [7] | mitochondrial membrane potential (TMRE) [8] | DAT gene expression (qRT-PCR) [9] | TH gene expression (qRT-PCR) [9] | α-synuclein gene expression (qRT-PCR) [9] | Nurr1 (immunolocalization) [10] | TH (immunolocalization) [10] | synapsin protein expression (immunolocalization) [10] | intracellular reactive oxidative stress (ROS) [11] | nitric oxide level [12] | glutathione (GSH) activity [13] | further results
1 | CC(=O)O[C@@H]1CC[C@@]2(C)[C@H](CC[C@@H]3[C@@H]2CC[C@]2(C)[C@@H]([C@H](C)CCC(=O)Oc4c(C(C)(C)C)cc(SC(C)(C)Sc5cc(C(C)(C)C)c(O)c(C(C)(C)C)c5)cc4C(C)(C)C)CC[C@@H]32)C1 [HA-1, 2,6-di-tert-butyl-4-((2-((3,5-di-tert-butyl-4-hydroxyphenyl)thio)propan-2-yl)thio)phenyl (4R)-4-[(3R,5R,8R,9S,10S,13R,14S,17R)-3-acetoxy-10,13-dimethyl-2,3,4,5,6,7,8,9,11,12,14,15,16,17-tetradecahydro-1H-cyclopenta[a]phenanthren-17-yl]pentanoate] | decreased significantly LDH activity | inhibition of acetylcholinesterase (AChE) similar to rivastigmine | increase/maintain the level of acetylcholine (ACh) | decrease the level of beta secretase 1 (BACE1) | increase the level of choline acetyltransferase (ChAT) | increased | increased | clear reversal of degeneration | decrease the level of ROS | prevent the reduction of endogenous nitric oxide level | maintain the mitochondrial membrane potential | increase the expression of all the dopaminergic markers tested | increase the expression of all the dopaminergic markers tested | decreased expression of α-synuclein | more pronounced | more pronounced | clear restoration of synapsin expression | decrease the level of ROS | prevent the reduction of endogenous nitric oxide levels | increase in the GSH activity | accumulation of BACE1 protein (immunolocalization) [5]: least expression; Nurr1 gene expression (qRT-PCR) [9]: increase the expression of all the dopaminergic markers tested; accumulation of α-synuclein (immunolocalization) [10]: least expression
2 | CC1(C)SC2(C=C(C(C)(C)C)C(=O)C(C(C)(C)C)=C2)C2(C=C(C(C)(C)C)C(=O)C(C(C)(C)C)=C2)S1 [SPQ, 2,4,9,11-tetrakis(1,1-dimethylethyl)-14,14-dimethyl-13,15-dithiadispiro[5.0.5.3]pentadeca-1,4,8,11-tetraene-3,10-dione] | decreased significantly LDH activity | inhibition of acetylcholinesterase (AChE) similar to rivastigmine | increase/maintain the level of acetylcholine (ACh) | decrease the level of beta secretase 1 (BACE1) | increase the level of choline acetyltransferase (ChAT) | increased | increased | clear reversal of degeneration | decrease the level of ROS | prevent the reduction of endogenous nitric oxide level | enhanced restoration of the mitochondrial membrane potential | significantly increased | significantly increased | decreased expression of α-synuclein | more pronounced | more pronounced | clear restoration of synapsin expression | decrease the level of ROS | prevent the reduction of endogenous nitric oxide levels | increase in the GSH activity | Synapsin I gene expression (qRT-PCR) [9]: significantly increased
